Numbers after ± are expanded uncertainties.
What was measured:
[1] = Solid-liquid equilibrium temperature; conditions: Crystal
[2] = Crystal

Solid-liquid equilibrium temperature ([1]; 20000 kPa) | Solid-liquid equilibrium temperature ([1]; 40000 kPa) | Solid-liquid equilibrium temperature ([1]; 60000 kPa) | Solid-liquid equilibrium temperature ([1]; 70000 kPa) | Solid-liquid equilibrium temperature ([1]; 80000 kPa) | Solid-liquid equilibrium temperature ([1]; 90000 kPa) | Normal melting temperature [2] | Structure (SMILES)
320.6 ± 1.2 K | 325.17 ± 1.2 K | 329.76 ± 1.2 K | 331.86 ± 1.2 K | 334.1 ± 1.2 K | 336.1 ± 1.2 K | 43.03 ± 1.2 °C | CCCCCCCCCCCC(=O)O [dodecanoic acid]
294.52 ± 1.2 K | 299.35 ± 1.2 K | 303.85 ± 1.2 K |  | 308.09 ± 1.2 K | 309.98 ± 1.2 K | 16.71 ± 1.2 °C | CCCCCCCC(=O)O [octanoic acid]
332.3 ± 1.2 K | 337.25 ± 1.2 K | 342.31 ± 1.2 K | 344.68 ± 1.2 K | 346.55 ± 1.2 K | 348.93 ± 1.2 K | 54.4 ± 1.2 °C | CCCCCCCCCCCCCC(=O)O [tetradecanoic acid]

Source: the NIST ThermoML archive (doi:10.1016/j.fluid.2007.02.007)
